Counter-ions that a name gives are not always drawn. Like-named read-outs stand apart in the source and are kept apart here.
Legend:
[1] = alleged in literature; cited from earlier work
mice = conditions: in mice; cited from earlier work
platelet aggregation = conditions: in vitro; Il Farmaco, 44 (5), 495-502, 1989; cited from earlier work
[2] = test system: Zymosan Stimulated Macrophaqes; test: Test A: Inhibition of Arachidonic Acid Release from Zymosan Stimulated Macrophages; format: cell-based, mouse (female MF1); conditions: inhibition of arachidonic acid release, six concentrations (100, 50, 20, 10, 5 and 1 μM), 5 h with zymosan, read-out: Test A IC50
Summary of the method: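 Peritoneal macrophages from female MF1 mice, labelled overnight with [3H]-arachidonic acid (1.6 μCi/ml final), adherent cells pretreated 24 h with drug, then stimulated 5 h with fresh drug plus stimulus at 37° C. Released label counted by scintillation; net stimulated release inhibition at 1–100 μM gives IC50.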

[3] = test system: Carrageenan-induced rat paw oedema; test: Test B: Carrageenan-induced rat paw oedema test; format: in vivo, rat (female); conditions: inhibition of paw oedema, 1 h before carrageenan, 3 h after injection; for inhibition in vivo at 100 mg/kg: Rattus norvegicus, po, 3 h
Description: Carrageenan-induced rat paw oedema test
Female rats, weight range 125-150 g were fasted overnight. One of the hind legs of each animal was marked with a line at the connection between the cuboid/navicular and calcaneus/talus bones. Groups of six rats were orally dosed at 10 ml/kg, in random order, with a given dose of the test compound given as a solution or suspension in 10% (w/v) aqueous acacia solution.
One hour after dosing, 0.1 ml of 1% (w/v) sterile carrageenan λ in normal saline was injected deeply into the plantar surface of the marked hind foot of each rat. The volume of the foot (up to the marked line) was measured immediately after injection using duplicate water displacement readings. Three hours after injection the foot volume was measured again and the percentage increase in foot volume relative to the initial reading was calculated.
The increase in foot volume (i.e. the degree of oedema) in drug treated animals when compared with that in the drug untreated control gave the degree of inhibition of paw oedema by the drug.
Compounds were considered to be active in this test if they produced a 20% or greater inhibition of paw oedema in at least two out of three tests after oral dosing at 100 mg/kg. Statistical significance was assessed using the Student't test for single dose studies and Dunnett's test for multiple dose studies. More advantageous compounds were active in both Tests A and B,

Row | SMILES | IC50 ([2]; Mus musculus, Macrophage, 5 h) [µM] | inhibition in vivo at 100 mg/kg [3] [%] | also measured
1 | CCC(NCC(C)N1CCOCC1)c1ccc(Cl)c(Cl)c1 (stereo not drawn) [N-[2-(4-Morpholino)propyl]-α-ethyl-3,4-dichlorobenzylamine] | – | – | antiinflammatory activity [1]: antiinflanmmtory activity; undesirable side-effects (mice): wide range of undesirable side-effects in mice
2 | CC(CCn1ccnc1)NCc1ccccc1 (stereo not shown) [Compound A] | – | – | inhibitory effect on platelet aggregation (platelet aggregation): inhibitory effect on platelet aggregation in vitro
3 | CC(C)(NCCCn1cncc1CO)c1ccc(Cl)cc1 [Example 88, 1-{3-[1-(4-Chlorophenyl)-1-methylethylamino]propyl}imidazol-5-yl-methanol dihydrochloride] | 60 | 6 | –
4 | Cc1cn(CCCNC(C)c2ccc(Cl)cc2)c(Cc2ccccc2)n1 (stereo not shown) [Example 32, 3-[2-benzyl-4-methylimidazol-1-yl]-N-[1-(4-chlorophenyl)ethyl]propylamine] | 6 | 35 | –
5 | COc1cc(C)c(CNCCCn2ccnc2)c(C)c1 [Example 50, 3-(imidazol-1-yl)-N-(4-methoxy-2,6-dimethylbenzyl)propylamine dihydrochloride] | 31 | 0 | –
6 | CC(NCCCn1cnc(Cl)c1Cl)c1ccc(Cl)cc1 (stereo not shown) [Example 67, N-[1-(4-Chlorophenyl)ethyl]-3-(4,5-dichloroimidazol-1-yl)propylaminesesquihydrochloride] | 18 | 42 | –
7 | CC(NCCCn1ccnc1)c1ccc(Cl)c(Cl)c1Cl (stereo not shown) [Example 13, N-[1-(2,3,4-Trichlorophenyl)ethyl]-3-(imidazol-1-yl)propylamine dihydrochloride] | 13 | 70 | –
8 | CC(C)(NCCCn1ccnc1)c1ccc(Cl)cc1.Cl.Cl [68 (2), N-[1-(4-chlorophenyl)-1-methylethyl]-3-(imidazol-1-yl)propylamine dihydrochloride] | – | – | IC50 ([2]; dihydrochloride): 43 µM; Test B % inhibition at 100 mg/kg ([3]; oral): 70%
9 | COC(=O)c1ccc(CNCCCn2ccnc2C)cc1 [Example 49, methyl 4-[3-(2-methylimidazol-1-yl)propylaminomethyl]benzoate] | 45 | 0 | –
10 | CCOC(=O)c1ccc(C(C)(C)NCCCn2ccnc2)cc1 [Example 77, Ethyl 4-{1-[3-(imidazol-1-yl)propylamino]-1-methylethyl}benzoate] | 82 | 23 | –
11 | CC(C)(NCCCn1cncc1CO)c1ccc(Cl)c(Cl)c1 [Example 84, 1-{3-[1-(3,4-Dichlorophenyl)-1-methylethylamino]propyl}imidazol-5-ylmethanol] | 24 | 19 | –
12 | CCc1nccn1CCCNCc1ccc(Cl)cc1 [Example 72, N-(4-Chlorobenzyl)-3-(2-ethylimidazol-1-yl)propylamine] | 26 | 18 | –
13 | Cc1ncn(CCCNC(C)c2ccc(Cl)cc2)c1C (stereo not shown) [Example 24, N-[1-(4-Chlorophenyl)ethyl]-3-(4,5-dimethylimidazol-1-yl)propylamine dihydrochloride] | 11 | 34 | –
14 | CC(C)(NCCCCn1ccnc1)c1ccc(Cl)cc1 [Example 89, N-[1-(4-chlorophenyl)-1-methylethyl]-4-(imidazol-1-yl)butylamine] | 40 | 51 | –
15 | Cc1ncn(CCCNCc2ccc(Cl)cc2)c1C [Example 45, N-(4-Chlorobenzyl)-3-(4,5-dimethylimidazol-1-yl)propylamine dihydrochloride] | 8 | 6 | –
16 | CC(NCCCn1ccnc1)c1ccc(C(F)(F)F)cc1 (stereo not shown) [Example 11, 3-(Imidazol-1-yl)-N-[1-(4-trifluoromethylphenyl)ethyl]propylamine] | 45 | 34 | –
